The text below walks through data of patent US12473250B2, “Molecular design of new antibiotics and antibiotic adjuvants against MCR strains” (priority 2019, dated 2025).

The MIC is the smallest concentration in the dilution series that meets the test's criterion for growth inhibition.

What all share (assay type): cell-based
Test [1] deals with colistin resistant MCR (+) E. Coli strains. Briefly: MIC, broth microdilution, compound alone. Conditions: compound alone. On the procedure:
(§1) MIC experiments of the antimicrobial agents were determined by a modified broth microdilution method in accordance with the Clinical and Laboratory Standards Institute (CLSI) guidelines using 96 well culture plates. In brief, serial dilutions of all plates were prepared at different concentrations (μg). The inoculum suspension was prepared by adding isolated colonies from a 18-20 hours on TSA plate into phosphate buffer (0.31 mM, pH 7.2) or in water for injection (BBraun) and adjusting the suspension to a turbidity equivalent to 0.5 McFarland Standard. Each well contained a final bacterial concentration of approximately 5×10^5 colony forming units (CFU)/mL. The plate was covered and incubated at 35° C. for 24 hours. […] For the microdilution plates, turbidity in wells can be measured at OD600 using TECAN infinite M200Pro. MIC was determined as […] concentration that gives a 99 percent inhibition.

In test [2] the test system is colistin resistant MCR (−) E. Cloacae strain 7023456439. Briefly: MIC, broth microdilution, compound alone. Conditions: strain 7023456439 E. Cloacae. The protocol: as §1
On the technique in general: Dilution methods test growth across graded concentrations, often in twofold steps.

Test [3] deals with colistin resistant MCR (−) E. Coli strains. Briefly: MIC, broth microdilution, compound alone. The protocol: as §1
Test [4] deals with colistin resistant MCR (+) E. Coli strains. Nature of the test: Synergy study: colistin MIC in the presence of compound. Particulars: compound at 2 μg. On the procedure:
(§2) The MICs of the individual drugs and LC compound in combinations were determined using the broth microdilution technique as recommended by the CLSI whereby the two anti-microbial agents were added in an equal amount. (e.g.: 50 μL of Colistin: 50 μL of LC compounds). Diluted media containing compounds and antibiotics will be serially diluted 2-fold, and LC compounds and antibiotics alone or in combination will be assayed at fixed synergy concentration. In all cases, the lowest concentration at which no visible growth occurred was be recorded to be the MIC value of individual and combined antibacterial agents. The results were obtained after 24 hours of incubation.

The subject of test [5] is colistin resistant MCR (−) E. Cloacae strain 7023456439. The test is described as above. Particulars: strain 7023456439 E. Cloacae. The protocol: as §2
The subject of test [6] is colistin resistant MCR (−) E. Coli strains. The test is described as above. On the procedure:
as §2

Setting [7] is: compound at 10 μg (Table 2a: 10 ug/ml).
[8] abbreviates: strain 6083672926, MCR(−), compound at 10 μg (Table 2a: 10 ug/ml).
Where [9] appears, read: strain 7023446108, MCR(−), compound at 10 μg (Table 2a: 10 ug/ml).
The mark [10] stands for this setting: strain 7033607097, MCR(−), compound at 10 μg (Table 2a: 10 ug/ml).
The mark [11] stands for this setting: compound at 5 μg (Table 2a: 5 ug/ml).
Setting [12] is: strain 6083672926, MCR(−), compound at 5 μg (Table 2a: 5 ug/ml).
The mark [13] stands for this setting: strain 7023446108, MCR(−), compound at 5 μg (Table 2a: 5 ug/ml).
Setting [14] is: strain 7033607097, MCR(−), compound at 5 μg (Table 2a: 5 ug/ml).

In brackets after ≈: the same amount, converted by molar mass. Bounds are passed on as bounds.

In the case of `CC(C)=CCc1c(OCCCC[n+]2ccccc2)ccc(C(=O)/C=C/c2ccc(OCCCC[n+]3ccccc3)cc2)c1O` [LC365], the MIC in test [1] (strain 6075066346, MCR (+)) stood at 3.125 µg/mL; in test [1] (strain 6083655967, MCR (+)), 3.125 µg/mL; in test [1] (strain 6103645107, MCR (+)), 3.125 µg/mL; in test [1] (strain 6123520276, MCR (+)), 3.125 µg/mL; in test [1] (strain 7013177695, MCR (+)), 3.125 µg/mL; in test [1] (strain 7023436560, MCR (+)), 3.125 µg/mL. The MIC in test [1] (strain 7023444207, MCR (+)) is 3.125 µg/mL; in test [2], over 50 µg/mL; in test [3] (strain 6083672926, MCR (−)), 3.125 µg/mL; in test [3] (strain 7023446108, MCR (−)), 3.125 µg/mL; in test [3] (strain 7033607097, MCR (−)) it was 3.125 µg/mL. In addition, the “Colistin MIC in the presence of the compound” value (“Colistin MIC in the presence” for short) was 0.39 µg/mL in test [4] (strain 6083655967, MCR(+)); 0.39 µg/mL in test [4] (strain 6103645107, MCR(+)); 0.39 µg/mL in test [4] (strain 6123520276, MCR(+)); 0.39 µg/mL in test [4] (strain 7023444207, MCR(+)); over 12.5 µg/mL in test [5] (compound at 2 μg); 0.195 µg/mL in test [6] (strain 6083672926, MCR(−), compound at 2 μg). Further, the “Colistin MIC in the presence” value in test [6] (strain 7023446108, MCR(−), compound at 2 μg) was 0.195 µg/mL; in test [6] (strain 7033607097, MCR(−), compound at 2 μg) it was 0.195 µg/mL.

For `CC1(C)C=Cc2c(ccc3c2OCC(c2ccc(OCC(=O)NC(CCCNC(=N)N)C(N)=O)cc2OCC(=O)NC(CCCNC(=N)N)C(N)=O)C3)O1` (stereo not shown) [LC127], the MIC in test [1] (strain 6075066346, MCR (+)) is over 50 µg/mL; in test [1] (strain 6083655967, MCR (+)), over 50 µg/mL; in test [1] (strain 6103645107, MCR (+)) it was over 50 µg/mL; in test [1] (strain 6123520276, MCR (+)), over 50 µg/mL; in test [1] (strain 7013177695, MCR (+)) it was over 50 µg/mL; in test [1] (strain 7023436560, MCR (+)), over 50 µg/mL. Besides, the MIC in test [1] (strain 7023444207, MCR (+)) is over 50 µg/mL; in test [2] it was over 50 µg/mL; in test [3] (strain 6083672926, MCR (−)), over 50 µg/mL; in test [3] (strain 7023446108, MCR (−)), over 50 µg/mL; in test [3] (strain 7033607097, MCR (−)) it was over 50 µg/mL. Also, the “Colistin MIC in the presence” value in test [5] (setting [7]) is over 12.5 µg/mL; in test [6] (setting [8]) it was 12.5 µg/mL; in test [6] (setting [9]), 6.25 µg/mL; in test [6] (setting [10]) it was 6.25 µg/mL.

On to `CC[N+](CC)(CC)CCCCOc1ccc(/C=C/C(=O)c2ccc(OCCCC[N+](CC)(CC)CC)c(CC=C(C)C)c2O)cc1` [LC315], for which the minimal inhibitory concentration (MIC) came to 6.25 µg/mL in test [1] (strain 6075066346, MCR (+)); 6.25 µg/mL in test [1] (strain 6083655967, MCR (+)); 6.25 µg/mL in test [1] (strain 6103645107, MCR (+)); 12.5 µg/mL in test [1] (strain 6123520276, MCR (+)); 12.5 µg/mL in test [1] (strain 7013177695, MCR (+)); 6.25 µg/mL in test [1] (strain 7023436560, MCR (+)). Also, the MIC in test [1] (strain 7023444207, MCR (+)) was 12.5 µg/mL; in test [2], over 50 µg/mL; in test [3] (strain 6083672926, MCR (−)), 25 µg/mL; in test [3] (strain 7023446108, MCR (−)), 12.5 µg/mL; in test [3] (strain 7033607097, MCR (−)), 12.5 µg/mL. Further, the “Colistin MIC in the presence” value is over 12.5 µg/mL in test [5] (setting [11]), under 0.0975 µg/mL in test [6] (setting [12]), under 0.0975 µg/mL in test [6] (setting [13]) and under 0.0975 µg/mL in test [6] (setting [14]).

With `CC[N+](CC)(CC)CCCCOc1ccc(C2COc3c(ccc4c3C=CC(C)(C)O4)C2)c(OCCCC[N+](CC)(CC)CC)c1` (stereo not shown) [LC317], the MIC was 50 µg/mL in test [1] (strain 6075066346, MCR (+)); 50 µg/mL in test [1] (strain 6083655967, MCR (+)); 50 µg/mL in test [1] (strain 6103645107, MCR (+)); over 50 µg/mL in test [1] (strain 6123520276, MCR (+)); 50 µg/mL in test [1] (strain 7013177695, MCR (+)); 50 µg/mL in test [1] (strain 7023436560, MCR (+)). Besides, the MIC was 50 µg/mL in test [1] (strain 7023444207, MCR (+)); over 50 µg/mL in test [2]; over 50 µg/mL in test [3] (strain 6083672926, MCR (−)); 50 µg/mL in test [3] (strain 7023446108, MCR (−)); over 50 µg/mL in test [3] (strain 7033607097, MCR (−)). The “Colistin MIC in the presence” value is over 12.5 µg/mL in test [5] (setting [7]), 1.56 µg/mL in test [6] (setting [8]), 1.56 µg/mL in test [6] (setting [9]) and 1.56 µg/mL in test [6] (setting [10]).

For the compound `CC(C)=CCc1c(OCCC[N+](C)(C)C)ccc(C(=O)/C=C/c2ccc(OCCC[N+](C)(C)C)cc2)c1O` [LC312], the MIC was found to be 12.5 µg/mL in test [1] (strain 6075066346, MCR (+)); 12.5 µg/mL in test [1] (strain 6083655967, MCR (+)); 12.5 µg/mL in test [1] (strain 6103645107, MCR (+)); 12.5 µg/mL in test [1] (strain 6123520276, MCR (+)); 12.5 µg/mL in test [1] (strain 7013177695, MCR (+)); 6.25 µg/mL in test [1] (strain 7023436560, MCR (+)). For the same compound, the minimal inhibitory concentration (MIC) in test [1] (strain 7023444207, MCR (+)) is 12.5 µg/mL; in test [2], over 50 µg/mL; in test [3] (strain 6083672926, MCR (−)), 12.5 µg/mL; in test [3] (strain 7023446108, MCR (−)) it was 6.25 µg/mL; in test [3] (strain 7033607097, MCR (−)) it was 12.5 µg/mL. Besides, the “Colistin MIC in the presence” value is over 12.5 µg/mL in test [5] (setting [7]), under 0.0975 µg/mL in test [6] (setting [8]), under 0.0975 µg/mL in test [6] (setting [9]) and under 0.0975 µg/mL in test [6] (setting [10]).

Regarding `CC(C)=CCc1c(OCC(=O)NC(CCCNC(=N)N)C(N)=O)ccc(C(=O)/C=C/c2ccc(OCC(=O)NC(CCCNC(=N)N)C(N)=O)cc2)c1O` (stereo not shown) [LC131], the MIC in test [1] (strain 6075066346, MCR (+)) was over 50 µg/mL; in test [1] (strain 6083655967, MCR (+)), over 50 µg/mL; in test [1] (strain 6103645107, MCR (+)) it was over 50 µg/mL; in test [1] (strain 6123520276, MCR (+)) it was over 50 µg/mL; in test [1] (strain 7013177695, MCR (+)) it was over 50 µg/mL; in test [1] (strain 7023436560, MCR (+)), over 50 µg/mL. For the same compound, the MIC is over 50 µg/mL in test [1] (strain 7023444207, MCR (+)); over 50 µg/mL in test [2]; over 50 µg/mL in test [3] (strain 6083672926, MCR (−)); over 50 µg/mL in test [3] (strain 7023446108, MCR (−)); over 50 µg/mL in test [3] (strain 7033607097, MCR (−)). Besides, the “Colistin MIC in the presence” value is over 12.5 µg/mL in test [5] (setting [7]), 12.5 µg/mL in test [6] (setting [8]), 6.25 µg/mL in test [6] (setting [9]) and 6.25 µg/mL in test [6] (setting [10]).

As for `CC(C)=CCc1c(OCCCCN(CCCN(C)C)CCCN(C)C)ccc(C(=O)/C=C/c2ccc(OCCCCN(CCCN(C)C)CCCN(C)C)cc2)c1O` [LC097], the MIC in test [1] (strain 6075066346, MCR (+)) amounted to 25 µg/mL (≈ 31 µM); in test [1] (strain 6083655967, MCR (+)), 25 µg/mL (≈ 31 µM); in test [1] (strain 6103645107, MCR (+)) it was 12.5 µg/mL (≈ 15.5 µM); in test [1] (strain 6123520276, MCR (+)) it was 25 µg/mL (≈ 31 µM); in test [1] (strain 7013177695, MCR (+)) it was 12.5 µg/mL (≈ 15.5 µM); in test [1] (strain 7023436560, MCR (+)), 12.5 µg/mL (≈ 15.5 µM). Also, the MIC in test [1] (strain 7023444207, MCR (+)) was 25 µg/mL (≈ 31 µM); in test [2] it was over 25 µg/mL; in test [3] (strain 6083672926, MCR (−)), 25 µg/mL (≈ 31 µM); in test [3] (strain 7023446108, MCR (−)) it was 12.5 µg/mL (≈ 15.5 µM); in test [3] (strain 7033607097, MCR (−)), 12.5 µg/mL (≈ 15.5 µM). For the same compound, the “Colistin MIC in the presence” value in test [5] (setting [11]) was over 12.5 µg/mL; in test [6] (setting [12]) it was 0.195 µg/mL; in test [6] (setting [13]), 0.195 µg/mL; in test [6] (setting [14]) it was 0.195 µg/mL.
